Here are results for 27 molecules from patent US20260042753A1 (Merck Patent GmbH, priority 2019, published 2026).

Experiment [1] has as its target c-Kit(V654A) (Homo sapiens, UniProt P10721, V654A). Kind of experiment: c-Kit(V654A) assay. Particulars: Table 1; 200 μM ATP. It is filed as biochemical. In a few lines:
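Radiometric filter-binding read-out: after 3% phosphoric acid stop, peptide-incorporated 33P on filtermat scintillation-counted. Enzyme: human c-Kit V654A, residues 544–end, N-terminal GST fusion.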

Experiment [2] has as its target mutant cKIT (560-576 and V654A) in GIST430/654 cell line (Homo sapiens (Human), UniProt P10721, DEL560-576/V654A). Kind of experiment: Cellular testing of cKIT mutant inhibitors: phospho-Y307-cKIT Luminex assay in GIST430/654 cells. It is filed as cell-based. Particulars: Table 1; cKIT autophosphorylation, compounds 45 min; read-out: GIST 430/654 IC50. In a few lines: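 Autophosphorylation of mutant cKIT at Y307 was quantified by a Luminex bead sandwich assay (total-cKIT capture, phosphospecific detection) after 45 min compound exposure in GIST430/654 cells, cultured in medium containing 100 nM imatinib. Signals were normalised to solvent (0.3% DMSO) controls and dose-response curves fitted for IC50.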

Sequence of mutant cKIT (560-576 and V654A) in GIST430/654 cell line (P10721 other isoform, or with tags, fused parts or gaps V654A/del 1-25/del 560-576 limits assumed): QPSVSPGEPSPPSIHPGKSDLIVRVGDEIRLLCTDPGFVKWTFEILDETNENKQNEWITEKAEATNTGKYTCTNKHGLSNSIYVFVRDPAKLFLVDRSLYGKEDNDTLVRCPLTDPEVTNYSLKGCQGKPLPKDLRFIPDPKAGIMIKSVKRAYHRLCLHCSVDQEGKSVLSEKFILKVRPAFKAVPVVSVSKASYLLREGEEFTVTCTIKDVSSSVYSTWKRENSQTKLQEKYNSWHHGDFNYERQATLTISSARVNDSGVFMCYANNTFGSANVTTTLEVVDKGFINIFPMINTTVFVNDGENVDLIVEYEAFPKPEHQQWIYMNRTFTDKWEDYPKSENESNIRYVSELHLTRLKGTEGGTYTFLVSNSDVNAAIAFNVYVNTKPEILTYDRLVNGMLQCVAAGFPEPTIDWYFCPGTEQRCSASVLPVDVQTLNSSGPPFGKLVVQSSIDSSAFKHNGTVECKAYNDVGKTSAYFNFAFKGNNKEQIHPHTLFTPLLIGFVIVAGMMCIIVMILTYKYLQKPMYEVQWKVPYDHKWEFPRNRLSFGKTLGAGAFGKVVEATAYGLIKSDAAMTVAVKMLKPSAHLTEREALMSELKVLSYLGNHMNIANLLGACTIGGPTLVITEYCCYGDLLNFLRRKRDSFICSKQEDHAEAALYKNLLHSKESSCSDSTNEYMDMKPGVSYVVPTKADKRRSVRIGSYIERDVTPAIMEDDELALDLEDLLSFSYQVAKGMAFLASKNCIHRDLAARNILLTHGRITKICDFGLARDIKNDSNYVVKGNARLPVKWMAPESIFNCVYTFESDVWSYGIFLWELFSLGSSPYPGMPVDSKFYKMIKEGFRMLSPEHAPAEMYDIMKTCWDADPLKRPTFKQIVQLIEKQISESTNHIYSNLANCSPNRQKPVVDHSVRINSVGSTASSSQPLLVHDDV

As to `COCCOc1cc2[nH]nc(-c3cc(-c4ccc(C(=O)N5CCC[C@@H]5C(C)(C)O)nc4)no3)c2cc1F` [A109, (5-{5-[5-fluoro-6-(2-methoxy-ethoxy)-1H-indazol-3-yl]-isoxazol-3-yl}-pyridin-2-yl)-[(R)-2-(1-hydroxy-1-methyl-ethyl)-pyrrolidin-1-yl]-methanone], the IC50 in experiment [1] worked out at 9.1 nM; in experiment [2], 430 nM.
On the same counts, the results for `COCCOc1cc2[nH]nc(-c3cc(-c4ccc(C(=O)N5CCOC[C@@H]5COC)cc4)no3)c2cc1F` [A110, 5-fluoro-6-(2-methoxyethoxy)-3-(3-{4-[(3S)-3-(methoxymethyl)morpholine-4-carbonyl]phenyl}-1,2-oxazol-5-yl)-1H-indazole] are 0.76 nM and 50 nM.
For `COCCOc1cc2[nH]nc(-c3cc(-c4ccc(C(=O)N5CCOC[C@H]5COC)cc4)no3)c2cc1F` [A111, 5-fluoro-6-(2-methoxyethoxy)-3-(3-{4-[(3R)-3-(methoxymethyl)morpholine-4-carbonyl]phenyl}-1,2-oxazol-5-yl)-1H-indazole], in that order: 1.2 nM and 62 nM.
On to `COCCOc1cc2[nH]nc(-c3cc(-c4ccc(C(=O)N5CCC56COC6)cc4)no3)c2cc1F` [A112, 5-fluoro-6-(2-methoxyethoxy)-3-[3-(4-{6-oxa-1-azaspiro[3.3]heptane-1-carbonyl}phenyl)-1,2-oxazol-5-yl]-1H-indazole], for which the IC50 stood at 1.3 nM in experiment [1] and 32 nM in experiment [2].
As to `COCCOc1cc2[nH]nc(-c3cc(-c4ccc(C(=O)N5CCN(C)CC5)cc4)on3)c2cc1F` [A113, (4-{3-[5-fluoro-6-(2-methoxy-ethoxy)-1H-indazol-3-yl]-isoxazol-5-yl}-phenyl)-(4-methyl-piperazin-1-yl)-methanone], the IC50 in experiment [1] stood at 2.6 nM; in experiment [2], 82 nM.
For `COCCOc1cc2[nH]nc(-c3cc(-c4ccc(C(=O)N5CCOC[C@H]5C)cc4)no3)c2cc1F` [A114, 5-fluoro-6-(2-methoxyethoxy)-3-(3-{4-[(3R)-3-methylmorpholine-4-carbonyl]phenyl}-1,2-oxazol-5-yl)-1H-indazole], in that order: 0.91 nM and 56 nM.
On the same counts, the results for `COCCOc1cc2[nH]nc(-c3cc(-c4ccc(C(=O)N5CCOC[C@@H]5C)cc4)no3)c2cc1F` [A115, 5-fluoro-6-(2-methoxyethoxy)-3-(3-{4-[(3S)-3-methylmorpholine-4-carbonyl]phenyl}-1,2-oxazol-5-yl)-1H-indazole] are 0.83 nM and 45 nM.
On the same counts, the results for `COCCOc1cc2[nH]nc(-c3cc(-c4ccc(C(=O)N5CCN(C)C(=O)C5)cc4)no3)c2cc1F` [A116, 4-(4-{5-[5-fluoro-6-(2-methoxyethoxy)-1H-indazol-3-yl]-1,2-oxazol-3-yl}benzoyl)-1-methylpiperazin-2-one] are 4.1 nM and 120 nM.
As for `COc1cc2[nH]nc(-c3cc(-c4ccc(C(=O)N5CCC[C@H]5CS(C)(=O)=O)cc4)no3)c2cc1F` [A117, 5-fluoro-3-(3-{4-[(2S)-2-(methanesulfonylmethyl)pyrrolidine-1-carbonyl]phenyl}-1,2-oxazol-5-yl)-6-methoxy-1H-indazole], the values for the IC50 in experiment [1] and in experiment [2] were 3.6 nM and 100 nM, respectively.
On the same counts, the results for `COCCOc1cc2[nH]nc(-c3cc(-c4ccc(C(=O)N5CC[C@H]5C(C)(C)O)nc4)no3)c2cc1F` [A118, (5-{5-[5-fluoro-6-(2-methoxy-ethoxy)-1H-indazol-3-yl]-isoxazol-3-yl}-pyridin-2-yl)-[(S)-2-(1-hydroxy-1-methyl-ethyl)-azetidin-1-yl]-methanone] are 7.1 nM and 640 nM.
As for `COCCOc1cc2[nH]nc(-c3cc(-c4ccc(C(=O)N5CC[C@@H]5C(C)(C)O)nc4)no3)c2cc1F` [A119, (5-{5-[5-fluoro-6-(2-methoxy-ethoxy)-1H-indazol-3-yl]-isoxazol-3-yl}-pyridin-2-yl)-[(R)-2-(1-hydroxy-1-methyl-ethyl)-azetidin-1-yl]-methanone], the IC50 in experiment [1] was found to be 12 nM; in experiment [2] it was 340 nM.
For `COCCOc1cc2[nH]nc(-c3cc(-c4ccc(C(=O)N5CC(c6ccncc6)C5)cc4)no3)c2cc1F` [A120, 5-fluoro-6-(2-methoxyethoxy)-3-(3-{4-[3-(pyridin-4-yl)azetidine-1-carbonyl]phenyl}-1,2-oxazol-5-yl)-1H-indazole], in that order: 0.64 nM and 24 nM.
For `COCCOc1cc2[nH]nc(-c3cc(-c4ccc(C(=O)N5CCS(=O)(=O)CC5C)cc4)no3)c2cc1F` (stereo not drawn) [A121, 4-(4-{5-[5-fluoro-6-(2-methoxyethoxy)-1H-indazol-3-yl]-1,2-oxazol-3-yl}benzoyl)-3-methyl-1lambda6-thiomorpholine-1,1-dione], in that order: 0.6 nM and 42 nM.
For `COCCOc1cc2[nH]nc(-c3cc(-c4ccc(N5CCCN(C)CC5)cc4)no3)c2cc1F` [A123, 5-fluoro-6-(2-methoxyethoxy)-3-{3-[4-(4-methyl-1,4-diazepan-1-yl)phenyl]-1,2-oxazol-5-yl}-1H-indazole], in that order: 0.39 nM and 38 nM.
On to `COCCOc1cc2[nH]nc(-c3cc(-c4ccc(N5CC[S+]([O-])CC5)cc4)no3)c2cc1F` [A127, 4-(4-{5-[5-fluoro-6-(2-methoxyethoxy)-1H-indazol-3-yl]-1,2-oxazol-3-yl}phenyl)-1lambda4-thiomorpholin-1-one], for which the IC50 in experiment [1] turned out to be 0.37 nM; in experiment [2] it was 24 nM.
For `COCCOc1cc2[nH]nc(-c3cc(-c4ccc(N5CCC(O)CC5)cc4)no3)c2cc1F` [A128, 1-(4-{5-[5-fluoro-6-(2-methoxyethoxy)-1H-indazol-3-yl]-1,2-oxazol-3-yl}phenyl)piperidin-4-ol], in that order: 0.79 nM and 100 nM.
On the same counts, the results for `COCCOc1cc2[nH]nc(-c3cc(-c4ccc(N=S5(=O)CCNCC5)cc4)no3)c2cc1F` [A129, 1-[(4-{5-[5-fluoro-6-(2-methoxyethoxy)-1H-indazol-3-yl]-1,2-oxazol-3-yl}phenyl)imino]-1lambda6-thiomorpholin-1-one] are 1.7 nM and 80 nM.
On the same counts, the results for `COCCOc1cc2[nH]nc(-c3cc(-c4ccc(N5CCS(=O)(=O)CC5)nc4)no3)c2cc1F` [A131, 4-(5-{5-[5-fluoro-6-(2-methoxyethoxy)-1H-indazol-3-yl]-1,2-oxazol-3-yl}pyridin-2-yl)-1lambda6-thiomorpholine-1,1-dione] are 3 nM and 65 nM.
For the molecule `COCCOc1cc2[nH]nc(-c3cc(-c4ccc(OCCN5CCS(=O)(=O)CC5)cc4)no3)c2cc1F` [A132, 4-[2-(4-{5-[5-fluoro-6-(2-methoxyethoxy)-1H-indazol-3-yl]-1,2-oxazol-3-yl}phenoxy)ethyl]-1lambda6-thiomorpholine-1,1-dione], the IC50 in experiment [1] stood at 1.6 nM; in experiment [2] it was 93 nM.
On the same counts, the results for `COCCOc1cc2[nH]nc(-c3cc(-c4ccc(OCCN5CCN(C)CC5)cc4)no3)c2cc1F` [A133, 5-fluoro-6-(2-methoxyethoxy)-3-(3-{4-[2-(4-methylpiperazin-1-yl)ethoxy]phenyl}-1,2-oxazol-5-yl)-1H-indazole] are 1 nM and 130 nM.
On the same counts, the results for `COCCOc1cc2[nH]nc(-c3cc(-c4ccc(OCCN5CCNCC5)cc4)no3)c2cc1F` [A134, 5-fluoro-6-(2-methoxyethoxy)-3-(3-{4-[2-(piperazin-1-yl)ethoxy]phenyl}-1,2-oxazol-5-yl)-1H-indazole] are 1.5 nM and 150 nM.
On the same counts, the results for `COCCOc1cc2[nH]nc(-c3cc(-c4cccc(C(=O)N(C)C)c4)no3)c2cc1F` [A135, 3-{5-[5-fluoro-6-(2-methoxy-ethoxy)-1H-indazol-3-yl]-isoxazol-3-yl}-N,N-dimethyl-benzamide] are 4.9 nM and 340 nM.
Consider `COCCOc1cc2[nH]nc(-c3cc(-c4ccc(-n5nc(C)ccc5=O)cc4)no3)c2cc1F` [A136, 2-(4-{5-[5-fluoro-6-(2-methoxy-ethoxy)-1H-indazol-3-yl]-isoxazol-3-yl}-phenyl)-6-methyl-2H-pyridazin-3-one], for which the results for the IC50 in experiment [1] and in experiment [2] were 5.9 nM and 140 nM, respectively.
On the same counts, the results for `COCCOc1cc2[nH]nc(-c3cc(-c4cnn(C)c4)no3)c2cc1F` [A137, 5-fluoro-6-(2-methoxy-ethoxy)-3-[3-(1-methyl-1H-pyrazol-4-yl)-isoxazol-5-yl]-1H-indazole] are 7.6 nM and 180 nM.
On to `COCCOc1cc2[nH]nc(-c3cc(-c4ccc(N5CCCS5(=O)=O)cc4)no3)c2cc1F` [A138, 2-(4-{5-[5-fluoro-6-(2-methoxyethoxy)-1H-indazol-3-yl]-1,2-oxazol-3-yl}phenyl)-1lambda6,2-thiazolidine-1,1-dione], for which the results for the IC50 in experiment [1] and in experiment [2] were 6.4 nM and 160 nM, respectively.
For `COCCOc1cc2[nH]nc(-c3cc(-c4ccc(N5CCOCC5=O)cc4)no3)c2cc1F` [A139, 4-(4-{5-[5-fluoro-6-(2-methoxyethoxy)-1H-indazol-3-yl]-1,2-oxazol-3-yl}phenyl)morpholin-3-one], in that order: 1.2 nM and 68 nM.
On to `COCCOc1cc2[nH]nc(-c3cc(-c4ccc(N5CC[S+]([O-])CC5)nc4)no3)c2cc1F` [A140, 4-(5-{5-[5-fluoro-6-(2-methoxyethoxy)-1H-indazol-3-yl]-1,2-oxazol-3-yl}pyridin-2-yl)-1lambda4-thiomorpholin-1-one], for which the values for the IC50 in experiment [1] and in experiment [2] were 1.6 nM and 46 nM, respectively.
